The nature of this data set: Pulsating bubble surfactometry (PBS), dynamic-mode cycling at 20 cpm. The format is physicochemical. As to conditions: 37° C.; for γmax: time point not stated; for % comp (percent SA compression to reach 20 mN m^−1): PBS dynamic-mode, 20 cpm, 100*[(SAmax−SA20)/(SAmax)]. The method, then: The maintenance of good surfactant activity during the dynamic changes in volume or film surface area at the a/l interface was assessed via bubble pulsation in PBS dynamic-mode. This method permits a simplified evaluation of in vitro dynamic film behavior. (Seurynck, S. L., Brown, N. J., Wu, C. W., Germino, K. W., Kohlmeir, E. K., Ingenito, E. P., Glucksberg, M. R., Barron, A. E., and Johnson, M. (2005) J. Appl. Physiol. 99, 624-633.) The γ-surface area (SA) data loops in FIG. 4B for each lipid-peptoid mixture are one representative pulsation cycle at 20 cycles per minute (cpm) after five minutes at 37° C., with bubble expansion in a clockwise loop direction.
The absence of low-γ data in some loops results from the inability of the image analysis system to trace the bubble shape in this regime. The highly compressed state of the film, which enables it to reach low γ, often causes significant bubble shape deformation, eliminating the possibility of tracing the bubble to obtain SA or employing the ellipsoidal Laplace equation to calculate γ. […] Visual, real-time bubble inspection confirmed that significant bubble deformation occurred and that γ reached near-zero in these films.
The lipids DPPC, POPG, and PA were individually dissolved in a chloroform/methanol solution (3/1 [v/v]) to a known concentration (˜2 or 4 mg mL^−1). Single-lipid solutions were then combined by volume at the ratio of DPPC:POPG:PA, 68:22:9 [wt:wt:wt] and to a known total lipid concentration (˜2 mg mL^−1). This well-characterized lipid formulation, the Tanaka Lipids (TL), is considered an adequate mimic of the non-protein (lipid) fraction of LS. The peptides and peptoids were individually dissolved in methanol from a lyophilized powder to a known concentration (1-2 mg mL^−1). For the PBS and LWSB/FM studies, the peptides and peptoids were added to the TL lipid solution at 2.16 mol % (˜10-12 absolute wt %, see Table 1), and the final solution was diluted to ˜1 mg lipid mL^−1. For comparative purposes, the inclusion of peptide/peptoid at 2.16 mol % corresponds to 10 wt % SP-B1-25 relative to the total lipid content (9.1 absolute wt %). Porcine SP-B was dissolved to a known concentration in chloroform/methanol and added to the TL solution at 0.72 mol %, corresponding to roughly 10 wt % of the monomer unit relative to the total lipid content (9.1 absolute wt %). For PBS and LWSB experiments, the standard deviation of the mean (a) was reported.
A commercial pulsating bubble surfactometry (PBS) instrument (General Transco, Largo, FL), modified with a direct, real-time imaging system, which has been previously described and validated in detail, was utilized to obtain both static-mode and dynamic-mode data. Samples were dried to a pellet from chloroform/methanol 3/1 [v/v] using a DNA 120 speedvac (Thermo Electron, Holbrook, N.Y.). The pellet was resuspended in buffer (150 mM NaCl, 10 mM HEPES, 5 mM CaCl2, pH 6.9) to 1.0 mg lipid mL^−1, with a known final volume of 70 μL. Samples were mixed with a pipette 20 times, sonicated with a Fisher Model 60 probe sonicator for two 15-second spurts, and then mixed again 20 times to form a dispersed suspension. Samples were then loaded into a small plastic sample chamber (General Transco) using a modified leak-free methodology. […]

The values below come from US20130065833A1, “ALKYLATED SP-B PEPTOID COMPOUNDS AND RELATED LUNG SURFACTANT COMPOSITIONS” (Northwestern University, priority 2010, published 2013).

On to “Noct2-Nspe6-NLys-Nspe2-NLys2-Nspe4-NLys-Nspe2 [peptoid 3]”, for which the “% comp (percent SA compression to reach 20 mN m^−1)” value is 12%. The “γmax” value (PBS dynamic-mode in a TL film) is about 35 mN m^−1.

Consider “Nspe8-NLys*-Nspe2-NLys2-Nspe4-NLys-Nspe2 [peptoid 1]”, for which the “% comp (percent SA compression to reach 20 mN m^−1)” value is recorded as about 26%. Moreover, for the setting “PBS dynamic-mode in a TL film”, the “γmin” value is reported as “near-zero” and the “γmax” value was determined as 46 mN m^−1.
